Measured values as given in patent US7902226B2, “Dehalogeno-compounds” (Daiichi Pharmaceutical Co., Ltd., priority 2000, dated 2011).
Converted amounts (≈) assume the structure as drawn. Like-named read-outs stand apart in the source and are kept apart here.

Experiments:
Ps. aeruginosa, 32121 = assay: Antibacterial activity (MIC), standard method of the Japan Society of Chemotherapy; assay type: cell-based; details: Pseudomonas aeruginosa
Description: (§1) Antibacterial activities of the compounds of this invention were measured in accordance to the standard method designated by the Japan Society of Chemotherapy, with the results shown as MIC values (microgram/ml) units in the following table. For comparison with the MIC values of the compounds of this invention, MIC values of levofloxacin (LVFX), ciprofloxacin (CPFX) and 7-[3-(R)-(1-aminocyclopropyl)pyrrolidin-1-yl]-6-fluoro-1-[2-(S)-fluoro-1-(R)-cyclopropyl]-8-methyl-1,4-dihydro-4-oxoquinoline-3-carboxylic acid (Reference drug 1), which is described in PCT/JP96/00208, are also shown in the table.

Str. pneumoniae J24 = assay: as above; assay type: cell-based; details: Streptococcus pneumoniae
Description: as §1

K. pneumoniae, Type 1 = assay: as above; assay type: cell-based; details: Klebsiella pneumoniae, TYPE1
Description: as §1

S. aureus, 209P = assay: as above; assay type: cell-based; details: Staphylococcus aureus
Description: as §1

S. flexneri, 2A 5503 = assay: as above; assay type: cell-based; details: Shigella flexneri, 2A5503
Description: as §1

bone marrow of mice = assay: Micronucleus test in bone marrow of mice; assay type: in vivo; details: Slc:ddY male mice, 24 hours after administration
Description: For the compound described as Example 1 of this invention, the micronucleus test in bone marrow of mice was performed by the following method.
Mice groups, each consisting of five, six-week-old, Slc:ddY male mice, were used. The compound of this invention described as Example 1 and 7-[3-(R)-(1-aminocyclopropyl)pyrrolidin-1-yl]-6-fluoro-1-[2-(S)-fluoro-1-(R)-cyclopropyl]-8-methyl-1,4-dihydro-4-oxoquinoline-3-carboxylic acid (Reference drug 1) described in PCT/JP96/00208 were dissolved in and diluted with 0.1 mol/l NaOH/saline solution. The 0.1 mol/l NaOH/saline solvent was used as a control, and as a positive Reference drug, a drug solution, prepared by dissolving and diluting cyclophosphamide (CP) in saline solution, was used. All drug solutions were disinfected by filtration through Mylex GS 0.22 μm filters. With each drug solution, a single intravenous dose of 10 ml/kg was administered at an administration rate of 0.2 ml/min. 24 hours after administration, […] were collected from the femur bone, the smear preparations were prepared, and these were dyed with […].

[1] = Blood concentration and organ concentration after oral administration (absorption test groups); assay type: in vivo; details: fasting rats, 20 mg/kg; for Kp / Cmax / AUC(0-t) / half-life: male, Crj: CD IGS, rat; for Cmax / AUC(0-t) / half-life: serum; for AUC(0-t): read-out: Serum AUC0-4h; for half-life: read-out: Serum t1/2 (converted)
Description: For the compound of this invention described as Example 1, the blood concentration and organ concentration after oral administration were determined by the following methods. Measurements were also made by the same methods for Reference drug 1.
(§2) An administration solution was prepared by dissolving a tested compound to a concentration of 2 mg/ml (as free compound) in distilled water, and using a 2.5 ml disposable syringe or a metal oral probe, the solution was orally administered at a dose of 20 mg/kg to fasting rats (Crj: CD IGS; male; 7-week-old; Charles River Japan, Inc.).
The absorption test groups (4 rats per group; total of 6 groups) were killed by exsanguination while under ether anesthetization 0.25, 0.5, 1, 2, 4, or 6 hours after drug administration, and the blood, liver, kidneys, and lungs were sampled. With the blood, serum was sampled by centrifugation (3000 rpm×15 minutes, 4° C.) after coagulation. Tissues were homogenized after adding 3 to 5 ml of 0.1M phosphate buffer solution (pH 7.0) and the centrifugation supernatants (3000 rmpm×15 minutes, 4° C.) were collected.
Determination of drug concentrations in liquid samples were quantified by an agar well method bioassay using the B. subtilis ATCC6051 strain as the test organism. A test medium was prepared by inoculating a suspension containing 5×10^7 CFU/ml of spores of the test bacteria at a proportion of 1% into an nutrient agar (Eiken Kagaku) that was sterilized at 121° C. for 15 minutes and then cooled to approximately 50° C. After placing 10 ml each of this medium in a sterilized Petri dish and solidifying horizontally, four holes of 8 mm diameter were made to prepare a test plate medium. The Bioassay System TDA-1 (Dainippon Seiki) was used for preparation of the test plate media. For the measurements, the test samples (diluted with serum or phosphate buffer solution as necessary), serial dilutions of the drug solutions for calibration (two-fold serial dilutions prepared so that the inhibition ring diameter will be approximately 10 to 30 mm), and a reference drug solution (a drug solution of given concentration for correction of the error among plates; normally, a concentration of forming an inhibition ring of approximately […] is used) were prepared, and 50 μL of the test sample (or the drug solution for calibration) were placed in each of two of the four holes of each plate and 50 μL of the reference solution was placed in each of the other two holes. After addition of the sample, the plate medium was set still for 1 hour at 4° C. to perform preliminary dispersion and then culturing at 37° C. was performed for approximately 18 hours, and the inhibition ring diameters were measured using CA-400 (Dainippon Seiki). The concentrations of the test samples were measured using a calibration curve determined by second-order regression from the logarithmic values of the drug concentration of the calibration curve serial dilutions and the inhibition ring diameters.
For the tissue concentration (μg/ml), the concentration (μg/ml) in the homogenate supernatant was determined from the tissue weight (g) and the added phosphate buffer amount (ml) and using the following equation: [Tissue concentration]=[Homogenate concentration]×([Tissue weight]+[Buffer solution amount])/[Tissue weight]
For each drug, the pharmacokinetic parameters in rats were calculated based on mean concentration, by non-compartmental analysis, and using the pharmacodynamics analysis software, PSAG-CP (Asmedica).

[2] = Urinary excretion after oral administration (excretion test groups); assay type: in vivo; details: fasting rats, 20 mg/kg, urine 0-24 h
Description: as §2, with “Inc.). […]” for “Inc.).”
Determination of drug concentrations in liquid samples were quantified by an agar well method bioassay using the B. subtilis ATCC6051 strain as the test organism. […] After addition of the sample, the plate medium was set still for 1 hour at 4° C. to perform preliminary dispersion and then culturing at 37° C. was performed for approximately 18 hours, and the inhibition ring diameters were measured using CA-400 (Dainippon Seiki). The concentrations of the test samples were measured using a calibration curve determined by second-order regression from the logarithmic values of the drug concentration of the calibration curve serial dilutions and the inhibition ring diameters.
The urinary excretion rate (%) was determined from the amount (μg) of drug administered, amount (ml) of urine (or washing solution), and concentration (μ/ml) in urine (or washing solution): [(Urinary excretion rate]=100×([Amount of urine]×[Concentration in urine])/[Amount of drug administered] Method 3: Calculation of Pharmacokinetic Parameters

[3] = kidney/serum, kidney, read-out: AUC0-4h tissue/serum ratio Kidney
[4] = liver/serum, liver, read-out: AUC0-4h tissue/serum ratio Liver
[5] = lung/serum, lung, read-out: AUC0-4h tissue/serum ratio Lung

Structure (SMILES) | MIC (Ps. aeruginosa, 32121) [ng/mL] | MIC (Str. pneumoniae J24) [ng/mL] | MIC (K. pneumoniae, Type 1) [ng/mL] | MIC (S. aureus, 209P) [ng/mL] | MIC (S. flexneri, 2A 5503) [ng/mL] | micronucleus induction in comparison to the control (bone marrow of mice; single intravenous dose, 50 and 100 mg/kg administration groups) | Tissue AUC0-4h Kidney ([1]; kidney) | Tissue Cmax Kidney ([1]; kidney) [µg/g] | Tissue AUC0-4h Liver ([1]; liver) | Tissue Cmax Liver ([1]; liver) [µg/g] | Tissue AUC0-4h Lung ([1]; lung) | Tissue Cmax Lung ([1]; lung) [µg/g] | Kp [1, 3] | Kp [1, 4] | Kp [1, 5] | Cmax [1] [µg/mL] | AUC(0-t) [1] [µg·h/mL] | half-life [1] [h] | Urinary recovery ratio (per dose) 0-24 h [2] [%] | micronucleus induction, judgment result (bone marrow of mice; single intravenous dose, 25, 50, and 100 mg/kg administration groups, versus control)
Cc1c(N2CC[C@@H](C3(N)CC3)C2)c(F)cc2c(=O)c(C(=O)O)cn([C@@H]3C[C@@H]3F)c12 [Reference drug 1, 7-[3-(R)-(1-aminocyclopropyl)pyrrolidin-1-yl]-6-fluoro-1-[2-(S)-fluoro-1-(R)-cyclopropyl]-8-methyl-1,4-dihydro-4-oxoquinoline-3-carboxylic acid, reference compound] | 12 (≈ 0.0297 µM) | ≤ 3 | 6 (≈ 0.0149 µM) | ≤ 3 | ≤ 3 | clearly seen | 7.1 | 5.0 | 10.4 | 11.6 | 5.3 | 3.0 | 7.1 | 10.4 | 5.3 | 1.6 | 2.3 | 1 | 1.8 | 
Cc1c(N2CC[C@@H](C3(N)CC3)C2)ccc2c(=O)c(C(=O)O)cn([C@@H]3C[C@@H]3F)c12 [Example 1, 7-[3-(R)-(1-aminocyclopropyl)pyrrolidin-1-yl]-1-[2-(S)-fluoro-1-(R)-cyclopropyl]-1,4-dihydro-8-methyl-4-oxoquinoline-3-carboxylic acid] | 25 (≈ 0.0649 µM) | ≤ 3 | 25 (≈ 0.0649 µM) | ≤ 3 | 6 (≈ 0.0156 µM) |  | 29.0 | 14.2 | 34.5 | 27.4 | 10.0 | 3.8 | 29 | 34.5 | 10 | 1.7 | 3.1 | 1.2 | 8.1 | negative
